The values that follow come from ChEMBL document CHEMBL5150010 (J Med Chem, 2021).

Where only a bound is given, the exact number is not on record here.

Data set [1] can be described thus: Inhibition of Influenza A virus H9N2-S2 Neuraminidase.
Data set [2] is described as follows: Inhibition of Influenza A virus H5N1-1220 Neuraminidase.
The nature of data set [3]: Inhibition of Influenza A virus H5N1 Neuraminidase.
Data set [4] in a line: Inhibition of Influenza A virus H5N2 Neuraminidase.
Data set [5] can be described thus: in vitro. Conditions: dog, MDCK cells.
The nature of data set [6]: in vivo. Particulars: Sprague-Dawley, rat, iv, 2 mg/kg.
Data set [7] can be described thus: Acute toxicity in Kunming mouse assessed as lethargy at 1000 mg/kg, IG observed upto 1 week. The data set is classed as organism-based. Particulars: in vivo, po, 168 h, time < 1 weeks.
The nature of data set [8]: Cmax in Sprague-Dawley rat at 20 mg/kg, po measured upto 24 hrs by LC-MS/MS analysis. In kind it is ADME, organism-based. Set-up: dose 20 mg/kg, time < 24 hrs, route po. Conditions: in vivo.
A short description of data set [9]: Acute toxicity in Kunming mouse assessed as ruffled fur at 1000 mg/kg, IG observed upto 1 week. In kind it is organism-based. Conditions: in vivo, po, 168 h, time < 1 weeks.
The nature of data set [10]: Subacute toxicity in female Kunming mouse assessed as increase in body weight at 50 mg/kg, IG mesured every second day for 2 weeks. The data set is classed as organism-based. Conditions: in vivo, po, 336 h.
A further data set concerns the target T1, Cytochrome P450 1A2 (Homo sapiens, UniProt P05177).
T1 sequence (P05177 whole entry): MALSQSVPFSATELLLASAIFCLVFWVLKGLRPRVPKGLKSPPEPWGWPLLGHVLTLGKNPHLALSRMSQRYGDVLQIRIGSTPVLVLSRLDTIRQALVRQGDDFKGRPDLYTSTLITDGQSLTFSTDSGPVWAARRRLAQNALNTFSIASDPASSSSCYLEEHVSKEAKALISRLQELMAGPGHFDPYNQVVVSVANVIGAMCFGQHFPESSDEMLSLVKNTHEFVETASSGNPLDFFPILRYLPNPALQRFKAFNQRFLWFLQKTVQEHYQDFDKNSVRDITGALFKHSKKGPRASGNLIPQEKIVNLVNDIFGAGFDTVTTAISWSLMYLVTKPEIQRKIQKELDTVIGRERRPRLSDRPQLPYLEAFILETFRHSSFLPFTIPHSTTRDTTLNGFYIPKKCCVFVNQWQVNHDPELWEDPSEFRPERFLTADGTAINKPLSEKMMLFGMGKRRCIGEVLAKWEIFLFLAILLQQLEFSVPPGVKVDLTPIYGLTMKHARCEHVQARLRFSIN

Data set [11] in a line: Acute toxicity in Kunming mouse assessed as anorexia at 1000 mg/kg, IG observed upto 1 week. The data set is classed as organism-based. Conditions: in vivo, po, 168 h, time < 1 weeks.
Data set [12] in a line: in vitro. Particulars: human, liver.
The nature of data set [13]: Subacute toxicity in male Kunming mouse assessed as increase in body weight at 50 mg/kg, IG mesured every second day for 2 weeks. In kind it is organism-based. Particulars: in vivo, po, 336 h.
Data set [14] can be described thus: in vitro. Particulars: human, liver microsomes.
The next data set has as its target Cytochrome P450 2C19 (Homo sapiens, UniProt P33261). In kind it is ADME, microsomes, Liver, Microsome.
The nature of data set [15]: in vitro. Particulars: human, liver microsomes. The source holds these as a separate data set. In general terms: Microsomes from liver hold many membrane-bound enzymes, among them those of drug oxidation.
Data set [16] can be described thus: Acute toxicity in Kunming mouse assessed as animal death at 1000 mg/kg, IG observed upto 1 week. The data set is classed as organism-based. Particulars: in vivo, po, 168 h, time < 1 weeks.
The target in the next data set is Cytochrome P450 2C9 (Homo sapiens, UniProt P11712). The data set is classed as ADME, microsomes, Liver, Microsome.
Cytochrome P450 2C9, sequence (P11712 whole entry): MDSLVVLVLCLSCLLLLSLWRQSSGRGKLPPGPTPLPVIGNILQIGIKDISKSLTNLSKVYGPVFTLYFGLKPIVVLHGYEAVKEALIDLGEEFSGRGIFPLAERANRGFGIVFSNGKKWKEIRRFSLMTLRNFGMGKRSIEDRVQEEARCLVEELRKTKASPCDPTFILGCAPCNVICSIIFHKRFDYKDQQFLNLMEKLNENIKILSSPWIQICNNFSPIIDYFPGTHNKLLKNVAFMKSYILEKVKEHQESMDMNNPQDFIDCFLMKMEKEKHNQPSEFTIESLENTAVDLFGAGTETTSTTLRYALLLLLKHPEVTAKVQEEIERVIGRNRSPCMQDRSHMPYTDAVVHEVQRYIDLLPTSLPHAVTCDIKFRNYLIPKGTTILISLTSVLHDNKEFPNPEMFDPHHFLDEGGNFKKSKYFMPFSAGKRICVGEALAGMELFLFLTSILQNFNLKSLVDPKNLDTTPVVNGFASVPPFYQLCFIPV
Data set [17] can be described thus: Tmax in Sprague-Dawley rat at 2 mg/kg, iv measured upto 24 hrs by LC-MS/MS analysis. In kind it is ADME, organism-based. Conditions: in vivo.
The next data set addresses Cytochrome P450 2D6 (Homo sapiens, UniProt P10635).
A short description of data set [18]: Acute toxicity in Kunming mouse assessed as increase in body weight at 1000 mg/kg, IG observed upto 1 week. Conditions: in vivo, po, 168 h, time < 1 weeks. In kind it is organism-based.
For a further data set, the target named is Cytochrome P450 3A4 (Homo sapiens, UniProt P08684).
Cytochrome P450 3A4, sequence (P08684 whole entry): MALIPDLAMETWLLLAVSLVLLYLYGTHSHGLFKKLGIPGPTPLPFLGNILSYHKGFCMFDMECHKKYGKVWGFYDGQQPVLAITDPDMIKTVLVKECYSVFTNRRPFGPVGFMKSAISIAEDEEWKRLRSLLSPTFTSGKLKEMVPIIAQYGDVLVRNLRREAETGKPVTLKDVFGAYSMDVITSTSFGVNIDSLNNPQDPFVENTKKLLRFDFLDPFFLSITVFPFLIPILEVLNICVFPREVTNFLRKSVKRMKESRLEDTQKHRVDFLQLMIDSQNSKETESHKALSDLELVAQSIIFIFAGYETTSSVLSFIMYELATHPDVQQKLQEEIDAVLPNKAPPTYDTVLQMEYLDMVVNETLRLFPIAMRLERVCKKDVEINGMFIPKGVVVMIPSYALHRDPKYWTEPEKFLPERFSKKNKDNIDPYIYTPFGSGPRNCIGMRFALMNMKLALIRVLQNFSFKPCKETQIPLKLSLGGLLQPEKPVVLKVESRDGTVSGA
A short description of data set [19]: in vitro. Conditions: human, liver microsomes. The source holds these as a separate data set.
The nature of data set [20]: Subacute toxicity in Kunming mouse assessed as food consumption at 50 mg/kg, IG mesured every second day for 2 weeks. In kind it is organism-based. Particulars: in vivo, po, 336 h.
Data set [21] can be described thus: Subacute toxicity in Kunming mouse assessed as water consumption at 50 mg/kg, IG mesured every second day for 2 weeks. Conditions: in vivo, po, 336 h. In kind it is organism-based.
Data set [22] can be described thus: in vitro. Conditions: human, liver microsomes. The source holds these as a separate data set.
A short description of data set [23]: Acute toxicity in Kunming mouse assessed as clonic convulsion at 1000 mg/kg, IG observed upto 1 week. In kind it is organism-based. Particulars: in vivo, po, 168 h, time < 1 weeks.
The nature of data set [24]: Oral bioavailability in Sprague-Dawley rat at 20 mg/kg measured upto 24 hrs by LC-MS/MS analysis. The data set is classed as ADME, organism-based. Conditions: in vivo.
Data set [25] in a line: Half life in Sprague-Dawley rat at 2 mg/kg, iv measured upto 24 hrs by LC-MS/MS analysis. Conditions: in vivo. The data set is classed as ADME, organism-based.
The nature of data set [26]: Cmax in Sprague-Dawley rat at 2 mg/kg, iv measured upto 24 hrs by LC-MS/MS analysis. Set-up: time < 24 hrs, dose 2 mg/kg, route iv. Conditions: in vivo. The data set is classed as ADME, organism-based.
A short description of data set [27]: Tmax in Sprague-Dawley rat at 20 mg/kg, po measured upto 24 hrs by LC-MS/MS analysis. The data set is classed as ADME, organism-based. Particulars: in vivo.
Data set [28] in a line: in vivo. Conditions: Sprague-Dawley, rat, iv, 2 mg/kg. This is another data set of the same source.
A short description of data set [29]: Subacute toxicity in Kunming mouse assessed as animal death at 50 mg/kg, IG mesured every second day for 2 weeks. The data set is classed as organism-based. Particulars: in vivo, po, 336 h.
The nature of data set [30]: Volume of distribution in Sprague-Dawley rat at 2 mg/kg, iv measured upto 24 hrs by LC-MS/MS analysis. The data set is classed as ADME, organism-based. Particulars: in vivo.
The conditions of data set [31]: rat, in vivo, po, 20 mg/kg, 24 h.
Data set [32] can be described thus: in vivo. Conditions: Sprague-Dawley, rat, po, 20 mg/kg.
The nature of data set [33]: Half life in Sprague-Dawley rat at 20 mg/kg, po measured upto 24 hrs by LC-MS/MS analysis. The data set is classed as ADME, organism-based. Conditions: in vivo.

Cytochrome P450 2C19, sequence (P33261 whole entry): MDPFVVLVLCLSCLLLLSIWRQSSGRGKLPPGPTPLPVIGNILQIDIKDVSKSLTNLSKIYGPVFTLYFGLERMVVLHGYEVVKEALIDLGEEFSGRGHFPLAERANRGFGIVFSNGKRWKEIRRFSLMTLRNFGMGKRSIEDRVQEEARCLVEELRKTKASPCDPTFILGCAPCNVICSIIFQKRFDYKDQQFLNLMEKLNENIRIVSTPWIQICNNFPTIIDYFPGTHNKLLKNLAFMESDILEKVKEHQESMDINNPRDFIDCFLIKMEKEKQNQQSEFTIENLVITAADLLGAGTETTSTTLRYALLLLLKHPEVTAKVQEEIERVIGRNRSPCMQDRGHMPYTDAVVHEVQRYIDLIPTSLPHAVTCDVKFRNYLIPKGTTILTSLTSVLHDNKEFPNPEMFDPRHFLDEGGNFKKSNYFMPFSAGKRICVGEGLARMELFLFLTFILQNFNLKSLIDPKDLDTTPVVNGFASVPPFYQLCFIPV
Cytochrome P450 2D6, sequence (P10635 whole entry): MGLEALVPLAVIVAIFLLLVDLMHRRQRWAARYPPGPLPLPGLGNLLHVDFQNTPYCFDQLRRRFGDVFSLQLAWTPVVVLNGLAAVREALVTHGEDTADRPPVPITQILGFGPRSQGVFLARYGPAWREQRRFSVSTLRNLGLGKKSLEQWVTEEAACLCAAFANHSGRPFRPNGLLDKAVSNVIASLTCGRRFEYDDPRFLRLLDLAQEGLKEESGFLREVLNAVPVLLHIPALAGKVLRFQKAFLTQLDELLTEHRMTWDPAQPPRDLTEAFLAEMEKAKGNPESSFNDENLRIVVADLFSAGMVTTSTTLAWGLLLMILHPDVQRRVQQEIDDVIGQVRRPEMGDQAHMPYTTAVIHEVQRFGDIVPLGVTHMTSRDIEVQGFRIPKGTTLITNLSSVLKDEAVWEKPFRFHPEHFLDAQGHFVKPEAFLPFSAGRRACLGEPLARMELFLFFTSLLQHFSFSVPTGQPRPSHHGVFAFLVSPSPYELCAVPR

One may read the IC50 as the point on the concentration scale where inhibition reaches its midpoint. A high value points to a need for much substance. For `CCC(CC)O[C@@H]1C=C(C(=O)O)C[C@H](NCc2ccc(-c3ccccc3)cc2)[C@H]1NC(C)=O`, the IC50 in data set [1] amounted to 580 nM; in data set [2] it was 1.9 nM.

`CCC(CC)O[C@@H]1C=C(C(=O)O)C[C@H](NCc2ccc(Sc3ccccc3)cc2)[C@H]1NC(C)=O`: the IC50 amounted to 0.96 nM in data set [3] and 869 nM in data set [4].

Usually CC50 stands for the concentration giving 50% cytotoxicity. High values mean lower toxicity to the cells, low ones greater toxicity to the cells. In turn, `CCC(CC)O[C@@H]1C=C(C(=O)O)C[C@H](NCc2ccc3oc4ccccc4c3c2)[C@H]1NC(C)=O` yielded a CC50 at 48 h in the data set “in vitro [5]” of 250 µM.

The compound `CCC(CC)O[C@@H]1C=C(C(=O)O)C[C@H](NCc2ccc3c(c2)c2ccccc2n3CC)[C@H]1NC(C)=O` displayed a CC50 at 48 h in “in vitro [5]” of 250 µM.

As usually defined, the AUC(0-t) is exposure summed from dosing to a finite time, without extrapolation to infinity. High values mean high exposure, low ones low exposure. As usually defined, the Cmax is the maximum level reached in the sampled fluid or tissue. By CLint scaled is commonly meant a measure of how fast metabolising enzymes remove a compound, apart from limits set by blood flow. Low readings indicate greater metabolic stability, high ones faster metabolism. The amount remaining is what is left of the initial amount, in per cent. A higher amount remaining goes with less turnover. For orientation: half-life means the time needed for the level to fall by half in the phase considered. Read a low half-life as fast loss. By Tmax is commonly meant the time from dosing to the highest level. As usually defined, the microsomal CLint is the capacity of the preparation to metabolise the compound, expressed as a volume cleared per time. Read a high microsomal CLint as rapid turnover. For orientation: bioavailability means the share of a dose that reaches the circulation, judged against a reference dose that is usually intravenous. The AUC(0-inf) is total exposure, with the tail of the curve extrapolated. A high value points to high exposure. For orientation: Vd means the apparent volume that relates the amount in the body to the concentration in plasma or blood. Low values mean confinement near the circulation, high ones extensive tissue distribution. The term AUC denotes concentration integrated over time. Read a high AUC as more exposure. For the compound `CCC(CC)O[C@@H]1C=C(C(=O)O)C[C@H](NCc2ccc3sc4ccccc4c3c2)[C@H]1NC(C)=O`, the AUC(0-t) at 24 h worked out at 4280 ng·h/mL in the data set “in vivo [6]” and 5830 ng·h/mL in “in vivo [32]”. Further, the Activity entry is “Non-Toxic” in data set [7]; “Non-Toxic” in [9]; “Toxic” in [10]; “Non-Toxic” in data set [11]; “Toxic” in [13]; “Non-Toxic” in data set [16]. Besides, the Activity entry in data set [18] is recorded as “Toxic”; in [20], “Non-Toxic”; in data set [21] it was “Non-Toxic”; in [23] it was “Non-Toxic”; in data set [29], “Non-Toxic”. For the same compound, the Cmax turned out to be 6300 ng/mL in data set [8] and 13000 ng/mL in data set [26]. In addition, the IC50 was 89.4 µM on Cytochrome P450 1A2; more than 100 µM against Cytochrome P450 2C19; 60.8 µM on Cytochrome P450 2C9; 58.9 µM against Cytochrome P450 2D6; more than 100 µM on Cytochrome P450 3A4. Moreover, the CLint scaled in “in vitro [12]” was less than 8.6 mL/min/kg. Besides, the fraction remaining at 1 h in “in vitro [14]” worked out at 84.7%; in “in vitro [22]”, 99.6%. The half-life is more than 145 min in the data set “in vitro [15]”, 44.6 min in data set [25] and 61.8 min in [33]. The Tmax in [17] was 4.98 min; in data set [27], 30 min. For the same compound, in “in vitro [19]”, the microsomal CLint is less than 9.6 µL/min/mg. For the same compound, it took 250 µM to reach half-maximal cytotoxicity in the data set “in vitro [5]” (CC50 at 48 h). The bioavailability in data set [24] worked out at 13.7%. The compound also displayed an area under the curve AUC(0-inf) at 24 h in the data set “in vivo [28]” of 4290 ng·h/mL. Moreover, the Vd in data set [30] turned out to be 0.161 L/kg. Further, the AUC in [31] is 5854 ng·h/mL.

On to `CCC(CC)O[C@@H]1C=C(C(=O)O)C[C@H](NCc2c3ccccc3cc3ccccc23)[C@H]1NC(C)=O`, for which half-maximal cytotoxicity in the data set “in vitro [5]” (CC50 at 48 h) was put at 250 µM.

The compound `CCC(CC)O[C@@H]1C=C(C(=O)O)C[C@H](NCc2ccc3c(c2)Cc2ccccc2-3)[C@H]1NC(C)=O` yielded a CC50 at 48 h in “in vitro [5]” of 250 µM.

Consider `O=C(O)Cc1ccccc1Nc1c(Cl)cccc1Cl` [DICLOFENAC], for which the CLint scaled in “in vitro [12]” stood at 151 mL/min/kg. This compound also came in with a half-life in “in vitro [15]” of 8.2 min. This compound yielded a microsomal CLint in the data set “in vitro [19]” of 168 µL/min/mg.

In “in vitro [5]”, `CCC(CC)O[C@@H]1C=C(C(=O)O)C[C@H](N)[C@H]1NC(C)=O` [OSELTAMIVIR CARBOXYLATE] yielded a CC50 at 48 h of 250 µM.

Compound `C[C@]12CC[C@H]3[C@@H](CCC4=CC(=O)CC[C@@]43C)[C@@H]1CC[C@@H]2O` [TESTOSTERONE] yielded a CLint scaled in the data set “in vitro [12]” of 66.2 mL/min/kg. Besides, the amount remaining at 1 h in “in vitro [14]” was found to be 87.2%; in the data set “in vitro [22]”, 9.8%. The compound further yielded a half-life in the data set “in vitro [15]” of 18.8 min. The same compound showed a microsomal CLint in “in vitro [19]” of 73.6 µL/min/mg.
